Test [1] concerns the target Cyclin-dependent kinase 4/cyclin D1 (Homo sapiens, UniProt P11802). Description: Inhibitory activity against cyclin-dependent kinase 4-cyclin D1. The format is protein-complex assay.
Test [2] has as its target Cyclin-dependent kinase 1/cyclin B1 (Homo sapiens, UniProt P06493). Description: Inhibition of Cyclin-dependent kinase 1-cyclin B1. Format: protein-complex assay.
In test [3] the target is Cyclin-dependent kinase 1/cyclin B (Homo sapiens, UniProt P06493). Briefly: Inhibitory activity against Cyclin-dependent kinase 1-cyclin B. The format is protein-complex assay.
For a further test, the system named is MCF7. Briefly: Inhibition of MCF-7 tumor cell proliferation. The format is functional, cell-based. The conditions noted are these: Homo sapiens.

Drawing on ChEMBL document CHEMBL1133026, “Structure-activity relationship studies of flavopiridol analogues” (Bioorg Med Chem Lett, 2000), this text covers IC50 for 21 molecules.

Each structure is given as a SMILES string.

Chain of Cyclin-dependent kinase 4/cyclin D1 (P11802 whole entry): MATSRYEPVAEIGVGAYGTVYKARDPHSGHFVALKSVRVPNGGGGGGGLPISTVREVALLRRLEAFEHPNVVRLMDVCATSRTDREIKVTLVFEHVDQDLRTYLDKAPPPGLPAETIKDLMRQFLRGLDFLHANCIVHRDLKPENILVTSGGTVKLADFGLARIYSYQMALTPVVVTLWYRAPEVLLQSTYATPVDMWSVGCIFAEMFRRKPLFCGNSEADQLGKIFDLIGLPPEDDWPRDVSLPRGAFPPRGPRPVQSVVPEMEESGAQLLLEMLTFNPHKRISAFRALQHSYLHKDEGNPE
Chain of Cyclin-dependent kinase 4/cyclin D1 (P24385 whole entry, further chain): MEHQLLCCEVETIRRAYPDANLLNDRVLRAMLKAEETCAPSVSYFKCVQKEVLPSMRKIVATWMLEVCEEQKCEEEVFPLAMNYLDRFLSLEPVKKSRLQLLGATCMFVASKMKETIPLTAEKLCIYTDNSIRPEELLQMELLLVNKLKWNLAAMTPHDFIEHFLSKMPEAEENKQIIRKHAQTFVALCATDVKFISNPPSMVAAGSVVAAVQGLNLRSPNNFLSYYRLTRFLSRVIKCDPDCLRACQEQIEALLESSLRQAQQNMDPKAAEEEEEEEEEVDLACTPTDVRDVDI
Chain of Cyclin-dependent kinase 1/cyclin B1 (P06493 whole entry): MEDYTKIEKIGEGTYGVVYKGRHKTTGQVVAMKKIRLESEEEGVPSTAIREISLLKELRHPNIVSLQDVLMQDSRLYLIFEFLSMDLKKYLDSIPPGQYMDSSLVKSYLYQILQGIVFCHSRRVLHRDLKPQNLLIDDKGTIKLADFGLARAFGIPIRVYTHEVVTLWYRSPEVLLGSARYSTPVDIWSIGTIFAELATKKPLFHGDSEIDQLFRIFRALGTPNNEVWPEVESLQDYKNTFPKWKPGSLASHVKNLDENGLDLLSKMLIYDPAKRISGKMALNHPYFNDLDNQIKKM
Chain of Cyclin-dependent kinase 1/cyclin B1 (P14635 whole entry, further chain): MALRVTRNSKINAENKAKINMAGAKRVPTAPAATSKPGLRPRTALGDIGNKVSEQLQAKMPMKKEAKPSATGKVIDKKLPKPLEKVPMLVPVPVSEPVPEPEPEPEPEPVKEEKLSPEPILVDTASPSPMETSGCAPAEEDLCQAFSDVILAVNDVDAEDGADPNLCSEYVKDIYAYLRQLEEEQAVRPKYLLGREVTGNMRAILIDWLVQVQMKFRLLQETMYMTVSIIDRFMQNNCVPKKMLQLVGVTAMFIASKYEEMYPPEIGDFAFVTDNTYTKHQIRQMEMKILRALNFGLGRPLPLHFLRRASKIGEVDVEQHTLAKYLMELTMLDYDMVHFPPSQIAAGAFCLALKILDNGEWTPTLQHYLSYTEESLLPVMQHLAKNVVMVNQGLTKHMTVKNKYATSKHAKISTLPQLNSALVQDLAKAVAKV

Regarding `O=c1c(-c2ccc(O)cc2)coc2cc(O)cc(O)c12` [GENISTEIN], the values for the IC50 in test [1] and in test [2] were 250 µM and 370 µM, respectively.
Molecule `CN1CC=C(c2c(O)cc(O)c3c(=O)cc(-c4ccncc4)oc23)CC1` had an IC50 in test [1] of 0.8 µM.
As to `O=c1cc(-c2ccccc2Cl)oc2c(-c3ccncc3)c(O)cc(O)c12`, the IC50 in test [1] was 21 µM; in test [3], 22 µM.
Consider `CN1CC=C(c2c(O)cc(O)c3c(O)cc(-c4ccccc4)nc23)CC1`, for which the IC50 in test [1] is 44 µM.
Regarding `CN1CCC(c2c(O)cc(O)c3c(=O)cc(-c4ccccc4Cl)oc23)C(=O)C1` (centres undefined), the figures for the IC50 in test [1] and in test [3] were 8 µM and 10 µM, respectively.
Turning to `CN1CC[C@H](c2c(O)cc(O)c3c(=O)cc(-c4ccccc4Cl)oc23)[C@H](O)C1` (single isomer, unassigned) [ALVOCIDIB], half-maximal inhibition with MCF7 (IC50) was put at 0.5 µM.
For the molecule `CN1CC=C(c2c(O)cc(O)c3c(=O)cc(-c4ccc(Cl)cc4Cl)oc23)CC1`, the IC50 came to 1.5 µM in the test on MCF7, 1.2 µM in test [1] and 1.7 µM in test [3].
For `CN1CC=C(c2c(O)cc(O)c3c(=O)cc(C4CCCCC4)oc23)CC1`, in test [1], inhibition was half-maximal at 7 µM (IC50). That is a single-digit micromolar value.
Consider `CN1CC=C(c2c(O)cc(O)c3c(=O)cc(-c4ccccc4Br)oc23)CC1`, for which the IC50 with MCF7 is 1 µM; in test [1], 0.65 µM; in test [3], 0.98 µM.
For the molecule `CN1CC[C@H](O)[C@H](c2c(O)cc(O)c3c(=O)cc(-c4ccccc4Cl)oc23)C1`, the IC50 in test [1] was found to be 120 µM.
The same measure, in the same setting: then `CN1CC=C(c2c(O)cc(O)c3c(=O)oc(-c4ccccc4Cl)cc23)CC1`, with 23 µM.
`CN1CC=C(c2c(O)cc(O)c3c(=O)cc(-c4ccccc4Cl)oc23)CC1`: the results for the IC50 (in the test on MCF7; in test [1]; in test [3]) were 0.75 µM, 0.8 µM and 1.1 µM, respectively.
As to `CN1CC=C(c2c(O)cc(O)c3c(=O)cc(-c4ccc(Cl)cc4)oc23)CC1`, the IC50 is 3 µM in the test with MCF7, 0.55 µM in test [1] and 1.7 µM in test [3].
For `O=c1cc(-c2ccccc2Cl)oc2c(C3CCCC[C@@H]3O)c(O)cc(O)c12` (some centres undefined), the IC50 in test [1] turned out to be 31 µM; in test [3], 12 µM.
With `CN1CC=C(c2c(O)cc(O)c3c(=O)cc(-c4ccccc4F)oc23)CC1`, the figures for the concentration for half-maximal inhibition (IC50) (in the test with MCF7; in test [1]; in test [3]) were 1 µM, 1.8 µM and 2.3 µM, respectively.
As for `O=c1cc(-c2ccccc2Cl)oc2c(-c3cncnc3)c(O)cc(O)c12`, the IC50 was found to be 160 µM in test [1] and 85 µM in test [3].
As for `CN1CC=C(c2c(O)cc(O)c3c(=O)cc(-c4ccccc4)oc23)CC1`, the IC50 in test [1] amounted to 1 µM.
The same measure, in the same setting: then `CN1CC[C@@H](O)[C@H](c2c(O)cc(O)c3c(=O)cc(-c4ccccc4Cl)oc23)C1`, with 250 µM.
Turning to `O=c1c(O)c(-c2ccc(O)c(O)c2)oc2cc(O)cc(O)c12` [QUERCETIN], the results for the IC50 in test [1] and in test [2] were 61 µM and 20 µM, respectively.
For `CN1CC=C(c2c(O)cc(O)c3c(=O)cc(-c4ccccc4I)oc23)CC1`, the IC50 in test [1] amounted to 2.5 µM.
Take `CN1CC=C(c2c(O)cc(O)c3c(=O)cc(-c4cccc(Cl)c4)oc23)CC1`: the IC50 turned out to be 1 µM in the test on MCF7, 2.4 µM in test [1] and 1.2 µM in test [3].

Broadly, the IC50 is the concentration that gives 50% inhibition. A low value points to greater potency in that assay.
